Like-named read-outs stand apart in the source and are kept apart here. Marks after values point to notes of the source that are not given here.
Legend:
[1] = pKa and log P of the sodium salt; assay type: physicochemical
CYP 2C9 = molecular target: T1, CYP 2C9 (Homo sapiens, UniProt P11712); assay: Extracellular Cytochrome P450 inhibition, 2C9; assay type: in vitro ADME; details: diclofenac 4′-hydroxylation
T1 construct: from tissue
Description: (§1) Aliquots of this mixture to (89 μL) were delivered to each well of a 96-well polypropylene plate which contained an aliquot of inhibitor (1 μL). Final solvent concentrations were 1% (v/v) or less. Incubations were commenced with the addition of 10 μL β-NADPH (10 mM stock) to a final volume of 100 μL. […] Samples were centrifuged, and supernatant was transferred for LC-MS analysis.

CYP 2D6 = molecular target: T2, CYP 2D6 (Homo sapiens, UniProt P10635); assay: Extracellular Cytochrome P450 inhibition, 2D6; assay type: in vitro ADME; details: dextromethorphan O-demethylation
T2 construct: microsomes were incubated test substrates, which were known to be metabolized by CYP enzymes, with or without Compound 2; from tissue
T2 sequence (P10635 whole entry): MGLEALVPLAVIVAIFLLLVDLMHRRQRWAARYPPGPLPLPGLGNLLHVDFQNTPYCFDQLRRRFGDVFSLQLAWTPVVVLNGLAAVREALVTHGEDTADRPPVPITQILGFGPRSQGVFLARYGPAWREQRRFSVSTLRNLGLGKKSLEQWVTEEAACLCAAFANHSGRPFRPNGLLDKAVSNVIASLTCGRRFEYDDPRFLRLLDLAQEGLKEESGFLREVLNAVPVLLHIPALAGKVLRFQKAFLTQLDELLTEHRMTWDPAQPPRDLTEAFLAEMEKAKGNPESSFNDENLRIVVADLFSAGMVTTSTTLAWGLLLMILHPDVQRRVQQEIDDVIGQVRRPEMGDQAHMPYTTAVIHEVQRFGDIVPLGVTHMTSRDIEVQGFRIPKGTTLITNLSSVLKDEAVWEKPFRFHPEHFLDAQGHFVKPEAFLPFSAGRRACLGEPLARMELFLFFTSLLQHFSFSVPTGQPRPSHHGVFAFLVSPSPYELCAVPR
Description: as §1

CYP 2C19 = molecular target: T3, CYP 2C19 (Homo sapiens, UniProt P33261); assay: Extracellular Cytochrome P450 inhibition, 2C19; assay type: in vitro ADME; details: mephenytoin 4′-hydroxylation
T3 construct: from tissue
T3 sequence (P33261 whole entry): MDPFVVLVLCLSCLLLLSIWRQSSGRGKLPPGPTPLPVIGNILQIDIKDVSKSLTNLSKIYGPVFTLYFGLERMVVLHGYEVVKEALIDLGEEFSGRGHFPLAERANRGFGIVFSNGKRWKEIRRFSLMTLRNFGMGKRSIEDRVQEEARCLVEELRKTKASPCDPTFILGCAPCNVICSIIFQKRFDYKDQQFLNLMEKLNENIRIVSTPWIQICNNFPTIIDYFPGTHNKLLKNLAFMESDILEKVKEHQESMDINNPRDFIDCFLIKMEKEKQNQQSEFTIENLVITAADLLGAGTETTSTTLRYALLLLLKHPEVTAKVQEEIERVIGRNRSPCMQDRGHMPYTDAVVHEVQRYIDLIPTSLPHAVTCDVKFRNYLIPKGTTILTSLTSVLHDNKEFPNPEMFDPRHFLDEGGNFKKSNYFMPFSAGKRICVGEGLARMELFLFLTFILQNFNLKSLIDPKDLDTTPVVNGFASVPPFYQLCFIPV
From the text: Final solvent concentrations were 1% (v/v) or less.

[2] = Liquid formulations (oral solutions/suspensions); assay type: physicochemical
Description: Values of pH reported were estimated based on pH indicating strips. […] Accordingly, provided in certain embodiments herein were formulations having a pH above about 9, above about 10 or of about 10. In certain embodiments, the formulation was buffered at a pH of about 10. All formulations prepared were sonicated for about 10 minutes.

CYP2C9 = assay: Cellular Cytochrome P450 induction, CYP2C9; details: tested at 10 μM, cryopreserved human hepatocytes
[3] = tested on: whole blood ionophore-stimulated leukotriene LTB4; assay: Phase I study, whole blood ionophore-stimulated LTB4; assay type: in vivo, human; details: for Emax / EC50 / EC90: Homo sapiens; for Emax: read-out: Emax (%), maximum inhibition of LTB4; for EC50: read-out: EC50 (ng/mL), concentration at which 50% inhibition was reached; for LTB4 level at t = 24 hrs. (% of baseline): oral solution
From the text: Study Design: Single center, double-blind, randomized, placebo-controlled, single ascending dose followed by multiple ascending dose study.
Sample Size: (1) Single Dose Phase: eight (8) subjects (6 active, 2 placebo) per dose level; up to 5 dose levels are planned (a total of 40 subjects if all 5 dose levels are completed); and (2) Multiple Dose Phase: eight (8) subjects (6 active, 2 placebo) per dose level; up to 4 dose levels are planned (a total of 32 subjects if all 4 dose levels are completed).
Formulations: Compound 2 was supplied as an oral powder for reconstitution. Placebo solution matched. […] The placebo differed only in the absence of the active.
The following dosing cohorts were used:
Routes of Administration: All doses were administered orally with approximately 100 mL of water rinse. Subjects were fasted for at least 8 hours prior to dosing and for 2 hours after dosing. For BID dosing in the Multiple Dose Phase, when applicable, subjects were fasted for at least 2 hours prior to the second daily dose.
Plasma concentrations of Compound 1 were determined using a validated LC/MS method. Whole blood ionophore-stimulated leukotriene LTB4 and urinary LTE4 production were assayed by ELISA and mass spectrometry, respectively.
Analysis of Samples: Concentrations of Compound 1 was determined in plasma samples collected from subjects. Similarly, concentrations of LTB4 in plasma and urinary LTE4 were determined in blood and urine samples collected.

CYP3A4 = molecular target: T4, CYP3A4 (Homo sapiens, UniProt P08684); assay: Extracellular Cytochrome P450 inhibition, 3A4; assay type: in vitro ADME
T4 construct: from tissue
T4 sequence (P08684 whole entry): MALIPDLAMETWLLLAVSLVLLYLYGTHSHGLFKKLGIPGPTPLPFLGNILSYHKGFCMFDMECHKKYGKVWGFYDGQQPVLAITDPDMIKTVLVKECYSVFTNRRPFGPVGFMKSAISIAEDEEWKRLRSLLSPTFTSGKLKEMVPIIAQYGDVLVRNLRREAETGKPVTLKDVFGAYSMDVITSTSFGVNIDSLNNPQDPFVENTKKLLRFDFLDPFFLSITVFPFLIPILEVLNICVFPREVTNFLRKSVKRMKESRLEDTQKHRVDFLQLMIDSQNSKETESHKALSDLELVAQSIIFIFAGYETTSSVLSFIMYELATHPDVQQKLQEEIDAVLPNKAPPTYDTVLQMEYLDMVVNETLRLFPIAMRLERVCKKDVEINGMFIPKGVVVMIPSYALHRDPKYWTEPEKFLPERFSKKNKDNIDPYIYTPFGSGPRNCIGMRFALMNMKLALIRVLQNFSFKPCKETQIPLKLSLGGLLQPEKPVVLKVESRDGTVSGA
Description: as §1

Solubility vs. pH = assay type: physicochemical; details: 0.15 M aqueous sodium chloride, saline or isotonic, thermodynamic from solid, 0.15M sodium chloride (aqueous), read-out: Solubility, Concentration
Description: Suspensions were made up in 0.15M sodium chloride (aqueous) and the pH adjusted to the appropriate value with either diluted hydrochloric acid or sodium hydroxide, to ensure that different salt forms with different solubilities are not produced in solution. The suspension was then allowed to equilibrate for 2 h, and the pH was checked and re-adjusted if required.
The pH of the resultant solution was measured, and the solubility was calculated by HPLC-UV assay of the compound concentration in solution.

[4] = Multiple dose part, Day 1, 10 mg
[5] = Multiple dose part, Day 1, 50 mg
[6] = Multiple dose part, Day 1, 150 mg
[7] = Multiple dose part, Day 1, 450 mg
[8] = Multiple dose part, Day 11, 10 mg
[9] = Multiple dose part, Day 11, 50 mg
[10] = Multiple dose part, Day 11, 150 mg
[11] = Multiple dose part, Day 11, 450 mg
[12] = Single dose part, Day 1, 600 mg
[13] = Single dose part, Day 1, 1000 mg

T1 sequence (P11712 whole entry): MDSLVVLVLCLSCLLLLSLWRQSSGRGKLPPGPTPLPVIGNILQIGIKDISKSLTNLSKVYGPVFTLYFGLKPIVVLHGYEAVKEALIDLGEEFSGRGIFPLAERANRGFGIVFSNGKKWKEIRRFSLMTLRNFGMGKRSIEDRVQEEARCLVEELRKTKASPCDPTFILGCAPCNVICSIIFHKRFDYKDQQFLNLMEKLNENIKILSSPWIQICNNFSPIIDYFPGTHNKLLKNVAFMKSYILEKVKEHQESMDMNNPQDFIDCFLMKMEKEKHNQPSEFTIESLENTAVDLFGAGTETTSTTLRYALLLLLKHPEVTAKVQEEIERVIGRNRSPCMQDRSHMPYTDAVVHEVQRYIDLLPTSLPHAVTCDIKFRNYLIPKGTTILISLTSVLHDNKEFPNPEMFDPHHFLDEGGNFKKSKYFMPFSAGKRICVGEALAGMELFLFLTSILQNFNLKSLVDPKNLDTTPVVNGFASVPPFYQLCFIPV

## CCOc1ccc(-c2ccc(Cn3c(CC(C)(C)C(=O)[O-])c(SC(C)(C)C)c4cc(OCc5ccc(C)cn5)ccc43)cc2)cn1.[Na+] [Compound 2, sodium 3-[3-(tert-butylsulfanyl)-1-[4-(6-ethoxy-pyridin-3-yl)benzyl]-5-(5-methyl-pyridin-2-yl-methoxy)-1H-indol-2-yl]-2,2-dimethylpropionate]
[1]
  pKa: 3.45
CYP 2C9
  IC50: > 50 µM
CYP 2D6
  IC50: > 50 µM
CYP 2C19
  IC50: > 40 µM
[2]; 0.010M sodium carbonate buffer, 1% v/v Lutrol and 0.05% splenda, pH 10, ~10 mg/mL
  Results (liquid formulation): Clear solution
[2]; 0.010M sodium carbonate buffer, 2% v/v ethanol and 0.05% splenda, pH 10, 10 mg/mL
  Results (liquid formulation): Clear solution
[2]; 0.010M sodium carbonate buffer, 5% v/v Ethanol and 0.05% splenda, pH 10, ~10 mg/mL
  Results (liquid formulation): Some undissolved
[2]; 0.010M sodium carbonate buffer, 5% v/v Simple syrup, pH 10, 10 mg/mL
  Results (liquid formulation): Some undissolved
[2]; 0.010M sodium carbonate buffer, pH 10, 10 mg/mL
  Results (liquid formulation): Clear solution
[2]; Vehicle 0.5% Methylcellulose, 3.33 mg/mL
  Results (liquid formulation): Suspension
CYP2C9
  induction of CYP2C9: No apparent induction
[3]; 24 h, Multiple dose part, Day 1, 10 mg
  Emax: 60.8%
[3]; 24 h, Multiple dose part, Day 1, 50 mg
  Emax: 89.6%
[3]; 24 h, Multiple dose part, Day 1, 150 mg
  Emax: 98.5%
[3]; 24 h, Multiple dose part, Day 1, 450 mg
  Emax: 97.6%
[3]; 24 h, Multiple dose part, Day 1, Multiple dose total
  EC50: 51 ng/mL
[3]; 24 h, Single dose part, Day 1, 50 mg
  Emax: 87.9%
[3]; 24 h, Single dose part, Day 1, 150 mg
  Emax: 98.8%
[3]; 24 h, Single dose part, Day 1, 300 mg
  Emax: 102%
[3]; 24 h, Single dose part, Day 1, 600 mg
  Emax: 100%
[3]; 24 h, Single dose part, Day 1, 1000 mg
  Emax: 99.6%
[3]; 24 h, Single dose part, Day 1, Single dose total
  EC50: 90 ng/mL
[3]; 24 h, read-out: EC90 (ng/mL), concentration at which 90% inhibition was reached, Multiple dose part, Day 1, Multiple dose total
  EC90: 296 ng/mL
[3]; 24 h, read-out: EC90 (ng/mL), concentration at which 90% inhibition was reached, Single dose part, Day 1, Single dose total
  EC90: 342 ng/mL
[3]; 264 h, Multiple dose part, Day 11, 10 mg
  Emax: 74.4%
[3]; 264 h, Multiple dose part, Day 11, 50 mg
  Emax: 97.9%
[3]; 264 h, Multiple dose part, Day 11, 150 mg
  Emax: 99.7%
[3]; 264 h, Multiple dose part, Day 11, 450 mg
  Emax: 101%
[3]; 264 h, Multiple dose part, Day 11, Multiple dose total
  EC50: 52 ng/mL
[3]; 264 h, read-out: EC90 (ng/mL), concentration at which 90% inhibition was reached, Multiple dose part, Day 11, Multiple dose total
  EC90: 308 ng/mL
[3]; [4]
  Tmax (h), time to reach Emax: 12.00 h
  tE>90% (h), time above 90% LTB4 inhibition: 0.0 h
[3]; [5]
  Tmax (h), time to reach Emax: 4.00 h
  tE>50% (h), time above 50% LTB4 inhibition: >23.3 h
  tE>90% (h), time above 90% LTB4 inhibition: 0.0 h
[3]; [6]
  Tmax (h), time to reach Emax: 3.00 h
  tE>50% (h), time above 50% LTB4 inhibition: >23.4 h
[3]; [7]
  Tmax (h), time to reach Emax: 3.00 h
  tE>50% (h), time above 50% LTB4 inhibition: >23.7 h
[3]; [8]
  Tmax (h), time to reach Emax: 12.00 h
  tE>90% (h), time above 90% LTB4 inhibition: 0.0 h
[3]; [9]
  Tmax (h), time to reach Emax: 4.00 h
  tE>90% (h), time above 90% LTB4 inhibition: 10.0 h
[3]; [10]
  Tmax (h), time to reach Emax: 2.00 h
  tE>50% (h), time above 50% LTB4 inhibition: >72.0 h
[3]; [11]
  Tmax (h), time to reach Emax: 2.00 h
  tE>50% (h), time above 50% LTB4 inhibition: >72.0 h
[3]; Single dose part, Day 1, 50 mg
  Tmax (h), time to reach Emax: 8.00 h
  tE>90% (h), time above 90% LTB4 inhibition: 0.0 h
[3]; Single dose part, Day 1, 150 mg
  Tmax (h), time to reach Emax: 6.00 h
[3]; Single dose part, Day 1, 300 mg
  Tmax (h), time to reach Emax: 8.00 h
[3]; Single dose part, Day 1, 300 mg, estimated
  tE>50% (h), time above 50% LTB4 inhibition: ~30^# h
[3]; [12]
  Tmax (h), time to reach Emax: 6.00 h
  tE>50% (h), time above 50% LTB4 inhibition: >71.7 h
[3]; [13]
  Tmax (h), time to reach Emax: 6.00 h
  tE>50% (h), time above 50% LTB4 inhibition: >71.7 h
[3]; single dose 50 mg
  LTB4 level at t = 24 hrs. (% of baseline): 37 ± 4.7 % of baseline
[3]; single dose 150 mg
  LTB4 level at t = 24 hrs. (% of baseline): 24 ± 4.4 % of baseline
[3]; single dose 300 mg
  LTB4 level at t = 24 hrs. (% of baseline): 23 ± 8.3 % of baseline
[3]; single dose 600 mg
  LTB4 level at t = 24 hrs. (% of baseline): 1.6 ± 0.98 % of baseline
[3]; single dose 1000 mg
  LTB4 level at t = 24 hrs. (% of baseline): 1.9 ± 0.41 % of baseline
CYP3A4; midazolam 1-hydroxylation
  IC50: > 50 µM
CYP3A4; testosterone 6β-hydroxylation
  IC50: > 40 µM
Solubility vs. pH; pH 1.1
  solubility at 2 h: 26 µg/mL
Solubility vs. pH; pH 3.8
  solubility at 2 h: < 0.1 µg/mL
Solubility vs. pH; pH 6.9
  solubility at 2 h: 0.7 µg/mL
Solubility vs. pH; pH 9.0
  solubility at 2 h: 3500 µg/mL
Solubility vs. pH; pH 9.8
  solubility at 2 h: > 10000 µg/mL
Solubility vs. pH; pH 11.2
  solubility at 2 h: > 10000 µg/mL
